Starred links: 1 amine or outer side, 2 acyl side, 3 side chain; linkers in the order of their positions; H or OH if unused. Non-standard residues stand in square brackets, D forms with d. Groups on a side chain read outwards from the residue. No end group written: not given here. Stea = stearoyl, (S)-4-carboxy-4-octadecanoylamino-butyryl on Lys via γGlu; γGlu = O=C(O)[C@H](CCC(=O)[*:2])N[*:1]
How the values were obtained:
[1] = system: mice with AMLN-diet-induced NASH; experiment: murine diet-induced NASH model (AMLN diet), eight-week treatment; assay type: in vivo, C57BL/6J mice
Text: Test compounds were investigated in a mouse model of NASH (murine diet-induced NASH model) as described in Kristiansen et al (World Journal of Hepatology 2016, vol. 8, pp. 673-684). C57BL/6J mice were given ad libitum access to a diet (D09100301, Research Diet, United States) high in fat (40%, of these 18% trans-fat), carbohydrates (40%, of these 20% fructose) and cholesterol (2%) that has previously been described as AMLN diet ([…] et al., Am J Physiol Gastrointest Liver Physiol 2013, vol. 305, pp. G483-G495). A control group was kept on regular rodent chow (Altromin 1324, Brogaarden, Denmark). After 26 weeks on the diet, a liver biopsy was performed for histological assessment of NASH and fibrosis at baseline. For this purpose, about 100 mg liver tissue were collected from the left lateral lobe, fixed overnight in 4% paraformaldehyde, paraffin-embedded and sectioned (3 μm thickness). For histological assessment, sections were stained with hematoxylin, eosin or Sirius Red and followed by analysis with Visiomorph software (Visiopharm, Denmark). Histological scoring was performed by a pathologist blinded to the study. NAFLD activity score and fibrosis score were determined according to the clinical criteria outlined by Kleiner et al (Hepatology 2005, […], pp. 1313-1321). Animals were randomized into different treatment groups according to body weight and extent of fibrosis. Treatment period was eight weeks during which animals remained on the AMLN diet. Compounds were given by once-daily or twice-daily subcutaneous injection. Vehicle-treated animals on AMLN diet and non-treated animals on regular rodent chow were included as controls. Group sizes were between 8 and 14 animals. After treatment, terminal liver samples were collected and analysed as for the pre-biopsy. Dual-agonistic GLP1R/GCGR agonistic peptides were investigated in a murine model of NASH as described in the methods section. Treatment duration was eight weeks over which animals remained on the NASH-inducing AMLN diet. The GLP1R-specific agonist liraglutide (SEQ ID NO.: 4) was included as a reference compound. In the diet-induced murine NASH model, compounds were administered at the following doses (all via subcutaneous injections): SEQ ID NO.: 2 10 μg/kg b.i.d., SEQ ID NO.:3 30 μg/kg q.d. in comparison to liraglutide (SEQ ID NO.: 4) at 200 μg/kg q.d., SEQ ID NO.: 1 10 μg/kg b.i.d. or 30 μg/kg b.i.d. in comparison to liraglutide (SEQ ID NO.: 4) at 100 μg/kg b.i.d.

human GLP-1 receptor = human GLP-1 receptor (Homo sapiens, UniProt P43220); experiment: binding to human GLP-1 receptor
human glucagon receptor = human glucagon receptor (Homo sapiens, UniProt P47871); experiment: binding to human glucagon receptor
[2] = 10 μg/kg b.i.d. s.c., eight weeks, AMLN diet mice (FIG. 1A study)
[3] = 10 μg/kg b.i.d. s.c., eight weeks, vehicle increased by 0.2 points
[4] = 30 μg/kg twice daily s.c., eight weeks, AMLN diet mice (FIG. 3A study)

human glucagon receptor, sequence (P47871 26-477): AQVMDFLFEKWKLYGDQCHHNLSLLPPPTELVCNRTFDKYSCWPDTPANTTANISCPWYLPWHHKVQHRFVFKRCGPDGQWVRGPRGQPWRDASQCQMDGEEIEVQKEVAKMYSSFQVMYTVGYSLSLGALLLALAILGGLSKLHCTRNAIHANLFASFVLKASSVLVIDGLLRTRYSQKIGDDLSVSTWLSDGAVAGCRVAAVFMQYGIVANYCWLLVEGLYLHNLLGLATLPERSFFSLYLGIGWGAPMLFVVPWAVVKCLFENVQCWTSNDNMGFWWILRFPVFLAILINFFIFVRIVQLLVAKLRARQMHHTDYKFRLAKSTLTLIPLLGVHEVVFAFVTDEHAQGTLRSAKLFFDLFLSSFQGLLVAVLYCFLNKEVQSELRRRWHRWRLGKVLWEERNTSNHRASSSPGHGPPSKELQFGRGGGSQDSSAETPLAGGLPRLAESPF
human GLP-1 receptor, sequence (P43220 24-463): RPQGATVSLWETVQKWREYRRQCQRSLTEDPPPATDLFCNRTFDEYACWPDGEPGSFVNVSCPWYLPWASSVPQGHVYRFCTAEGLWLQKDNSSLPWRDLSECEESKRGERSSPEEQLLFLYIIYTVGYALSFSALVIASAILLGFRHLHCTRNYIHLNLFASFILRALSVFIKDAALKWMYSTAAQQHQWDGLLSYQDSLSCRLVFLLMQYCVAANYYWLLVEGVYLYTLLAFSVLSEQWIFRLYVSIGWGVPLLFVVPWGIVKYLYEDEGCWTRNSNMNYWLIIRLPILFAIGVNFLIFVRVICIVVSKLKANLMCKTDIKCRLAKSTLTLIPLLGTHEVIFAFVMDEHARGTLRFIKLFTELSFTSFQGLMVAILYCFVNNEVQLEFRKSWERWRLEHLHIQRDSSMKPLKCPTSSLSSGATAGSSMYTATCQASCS

H-dS-Q-G-T-F-T-S-D-L-S-K-Q-K(γE-Palm)-DSRRAQDFIEWLKNGGPSSGAPPPS-NH2 (HXQGTFTSDLSKQKDSRRAQDFIEWLKNGGPSSGAPPPS; D-Ser1; K14 γE-palmitoyl; C-terminal amide; Exendin-4 analogue; MOD_RES (2)..(2) Xaa is D-Ser; MOD_RES (14)..(14) Lys is functionalized at the amino side chain group as Lys((S)-4-carboxy-4-hexadecanoylamino-butyryl); MOD_RES (39)..(39) amidated C-terminus) [SEQ ID NO.: 2, exendin-4 derivative of formula A, dual GLP-1/glucagon receptor agonist]
mean fibrosis stage after treatment ([1]; 10 μg/kg b.i.d. s.c., after eight weeks, baseline 1.2, vehicle group did not change): 0.6
components of NAS (steatosis, inflammation and hepatocyte ballooning scores) ([1]; 10 μg/kg b.i.d. s.c., eight weeks (FIG. 1D)): reduction in score was seen for all three components of NAS
weight loss vs vehicle [1, 2]: 4.9 grams
weight loss vs vehicle, % of body weight at baseline [1, 2]: 13.5%
weight loss vs baseline ([1]; 10 μg/kg b.i.d. s.c., eight weeks, AMLN diet mice (FIG. 1A study), vehicle gained 2.1 grams): 2.8 gram
weight loss vs baseline (% of body weight) ([1]; 10 μg/kg b.i.d. s.c., eight weeks, AMLN diet mice (FIG. 1A study), vehicle gained 5.6%): 7.7%
reduction in NAFLD activity score (NAS) vs baseline [1, 3]: 2.3 points

H-dS-Q-G-T-F-T-S-D-L-S-K-Q-K(γE-Palm)-ESKAAQDFIEWLKAGGPSSGAPPPS-NH2 (HXQGTFTSDLSKQKESKAAQDFIEWLKAGGPSSGAPPPS; D-Ser1; K14 γE-palmitoyl; C-terminal amide; Exendin-4 analogue; MOD_RES (2)..(2) Xaa is D-Ser; MOD_RES (14)..(14) Lys is functionalized at the amino side chain group as Lys((S)-4-carboxy-4-hexadecanoylamino-butyryl); MOD_RES (39)..(39) amidated C-terminus) [SEQ ID NO.: 1, exendin-4 derivative of formula A, dual GLP-1/glucagon receptor agonist]
decrease in mean NAS vs baseline [1, 3]: 2.0 points
weight loss vs baseline ([1]; 10 μg/kg twice daily s.c., eight weeks, AMLN diet mice (FIG. 3A study), vehicle gained 0.5 grams): 3.0 grams
weight loss vs baseline (% of body weight) ([1]; 10 μg/kg twice daily s.c., eight weeks, AMLN diet mice (FIG. 3A study), vehicle gained 1.3%): 8.5%
decrease in mean NAS vs baseline ([1]; 30 μg/kg b.i.d. s.c., eight weeks, vehicle increased by 0.2 points, p<0.05 vs liraglutide): 1.9 points
weight loss vs baseline [1, 4]: 3.9 grams
weight loss vs baseline (% of body weight) [1, 4]: 11.4%
change in fibrosis vs baseline ([1]; both doses, 10 and 30 μg/kg b.i.d. s.c., eight weeks (FIG. 3E)): trend to an improvement in fibrosis
binding to human GLP-1 receptor (human GLP-1 receptor): good binding
binding to human glucagon receptor (human glucagon receptor): good binding

H-dS-Q-G-T-F-T-S-D-L-S-K-Q-K(γE-Stea)-DEQLAKDFIEWLKAGGPSSGAPPPS-NH2 (H[dS]QGTFTSDLSKQK([γGlu-Stea])DEQLAKDFIEWLKAGGPSSGAPPPS-NH2) [SEQ ID NO.: 3, exendin-4 derivative of formula A, dual GLP-1/glucagon receptor agonist]
weight loss vs baseline ([1]; 30 μg/kg q.d. s.c., eight weeks, AMLN diet mice (FIG. 2A study), vehicle gained 1.1 grams): 3.9 grams
weight loss vs baseline (% of body weight) ([1]; 30 μg/kg q.d. s.c., eight weeks, AMLN diet mice (FIG. 2A study), vehicle gained 3.0%): 10.5%
change in mean fibrosis score vs baseline ([1]; 30 μg/kg q.d. s.c., eight weeks, vehicle increased by 0.1 points): remained unchanged
decrease in NAS vs baseline ([1]; 30 μg/kg q.d. s.c., eight weeks, vehicle increased by 0.8 points, p<0.001 vs vehicle, p<0.05 vs liraglutide): 1.6 points
